Target: C-Raf FL (full length CRAF with Y340E and Y341E activating mutations, co-expressed with h14-3-3 zeta) (Homo sapiens (Human), UniProt P04049, Y340E/Y341E)
Assay: In vitro Raf activity determination, AlphaScreen p-MEK readout, c-Raf (C-Raf FL)
Assay type: biochemical
Conditions: c-Raf approximately 4 nM, ATP 1 μM, pre-incubation 60 minutes, reaction 1 hour
Procedure, shortened: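 Full-length C-Raf (~4 nM) pre-incubated 60 min at room temperature with compound and kinase-dead biotinylated MEK1 (~10 nM) in Tris pH 7.5, 15 mM MgCl2, BSA, DTT. Reaction started with 1 μM ATP and run 1 h at room temperature. Phospho-MEK detected by AlphaScreen with anti-p-MEK antibody.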

Sequence of C-Raf FL (full length CRAF with Y340E and Y341E activating mutations, co-expressed with h14-3-3 zeta) (P04049 whole entry Y340E/Y341E): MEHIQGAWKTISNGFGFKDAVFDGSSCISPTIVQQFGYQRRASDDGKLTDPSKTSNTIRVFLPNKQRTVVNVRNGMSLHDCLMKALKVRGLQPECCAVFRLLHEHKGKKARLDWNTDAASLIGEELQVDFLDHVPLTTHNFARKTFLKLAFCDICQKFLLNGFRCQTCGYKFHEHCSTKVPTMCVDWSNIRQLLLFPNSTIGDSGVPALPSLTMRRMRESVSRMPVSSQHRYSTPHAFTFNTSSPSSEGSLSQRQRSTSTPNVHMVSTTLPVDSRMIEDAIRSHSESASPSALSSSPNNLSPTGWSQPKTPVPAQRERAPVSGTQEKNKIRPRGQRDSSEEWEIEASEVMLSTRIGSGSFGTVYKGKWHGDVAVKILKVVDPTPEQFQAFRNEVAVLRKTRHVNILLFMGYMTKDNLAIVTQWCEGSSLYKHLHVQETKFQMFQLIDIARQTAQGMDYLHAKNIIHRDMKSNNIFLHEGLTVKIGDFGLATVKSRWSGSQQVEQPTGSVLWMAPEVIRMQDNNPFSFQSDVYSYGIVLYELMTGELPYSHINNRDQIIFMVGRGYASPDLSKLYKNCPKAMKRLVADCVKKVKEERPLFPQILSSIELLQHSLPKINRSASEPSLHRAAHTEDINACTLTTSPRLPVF
Sequence of C-Raf FL (full length CRAF with Y340E and Y341E activating mutations, co-expressed with h14-3-3 zeta) (P63104 whole entry partner): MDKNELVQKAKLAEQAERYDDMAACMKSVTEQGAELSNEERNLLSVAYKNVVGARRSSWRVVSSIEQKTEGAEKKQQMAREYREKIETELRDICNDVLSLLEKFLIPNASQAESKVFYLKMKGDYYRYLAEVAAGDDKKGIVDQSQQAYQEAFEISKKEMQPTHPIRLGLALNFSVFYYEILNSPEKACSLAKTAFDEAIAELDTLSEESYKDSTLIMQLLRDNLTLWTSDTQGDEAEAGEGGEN

SMILES | IC50 [pM]
CCN1C[C@H]2CCOCCN2c2cc(-c3cc(NC(=O)c4ccnc(C(F)(F)F)c4)ccc3C)cnc2C1=O [Example 505, (R)-N-(3-(7-ethyl-8-oxo-1,2,4,5,5a,6,7,8-octahydropyrido[2′, 3′:6,7][1,4]diazepino [1,2-d][1,4]oxazepin-11-yl)-4-methylphenyl)-2-(trifluoromethyl)iso-nicotinamide] | 3600
Cc1ccc(NC(=O)c2ccnc(C(F)(F)F)c2)cc1-c1ccc2c(c1)N1CCOC[C@H]1[C@](CO)(CF)C2 [Example 408, N-(3-((4aR,5R)-5-(fluoromethyl)-5-(hydroxymethyl)-1,2,4,4a,5,6-hexahydro-[1,4]oxazino[4,3-a]quinolin-9-yl)-4-methylphenyl)-2-(trifluoromethyl)isonicotinamide] | 700
CCN1C(=O)[C@H]2[C@@H]3COC[C@@H]3[C@H]2c2cc(-c3cc(NC(=O)c4ccnc(C(C)(F)F)c4)ccc3C)cnc21 [Example 271, 2-(1,1-difluoroethyl)-N-(3-((6aR, 6bR, 9aR, 9bR)-5-ethyl-6-oxo-5,6,6a,6b,7,9,9a,9b-octahydrofuro[3′,4′: 3,4]cyclobuta[1,2-c][1,8]naphthyridin 2-yl)-4-methylphenyl) isonicotinamide] | 200
Cc1ccc(NC(=O)c2ccnc(C(F)(F)F)c2)cc1-c1cnc2c(c1)N1CCOC[C@@H]1C[C@@H]2OCCO [Example 509, N-(3-((4aS,6S)-6-(2-hydroxyethoxy)-1,2,4,4a,5,6-hexahydro-[1,4]oxazino[4,3-a][1,5]naphthyridin-9-yl)-4-methylphenyl)-2-(trifluorometh-yl)isonicotinamide] | 200
Cc1ncc(NC(=O)c2cccc(C(F)(F)F)c2)cc1-c1cnc2c(c1)N1CCOC[C@@H]1C[C@@H]2O [Example 106, N-(5-((4aS,6S)-6-Hydroxy-1,2,4,4a,5,6-hexahydro-[1,4]oxazino[4,3-a][1,5]naphthyridin-9-yl)-6-methylpyridin-3-yl)-3-(trifluoromethyl)benzamide] | 12
Cc1ncc(NC(=O)c2cccc(C(F)(F)F)c2)cc1-c1cc2c(cc1F)C[C@](F)(CO)[C@H]1COCCN21 [Example 479, N-(5-((4aR,5R)-5,8-difluoro-5-(hydroxymethyl)-1,2,4,4a,5,6-hexahydro-[1,4]oxazino[4,3-a]quinolin-9-yl)-6-methylpyridin-3-yl)-3-(trifluoromethyl) benzamide] | 400
Cc1ccc(NC(=O)c2cncc(C(F)(F)F)c2)cc1-c1cc2c(cc1F)C[C@](F)(CO)[C@H]1COCCN21 [Example 488, N-(3-((4aR,5R)-5,8-difluoro-5-(hydroxymethyl)-1,2,4,4a,5,6-hexahydro-[1,4]oxazino[4,3-a]quinolin-9-yl)-4-methylphenyl)-5-(trifluoromethyl) nicotinamide] | 300
CCN1C(=O)O[C@H]2COCC[C@@H]2c2cc(-c3cc(NC(=O)c4ccnc(C(F)(F)F)c4F)ccc3C)cnc21 [Example 304, N-(3-((4aR, 11bR)-7-ethyl-6-oxo-2,4,4a,6,7,11b-hexahydro-1H-pyrano[4,3-f]pyrido[2,3-d][1,3]oxazepin-10-yl)-4-methylphenyl)-3-fluoro-2-(trifluoromethyl) isonicotinamide] | 500
Cc1ccc(NC(=O)c2ccnc(C(C)(F)F)c2)cc1-c1cnc2c(c1)N1CCOC[C@H]1C[C@@]2(O)C(F)(F)F (racemic) [Example 169, rac-cis-2-(1,1-difluoroethyl)-N-(3-(6-hydroxy-6-(trifluoromethyl)-1,2,4,4a,5,6-hexahydro-[1,4]oxazino[4,3-a][1,5]naphthyridin-9-yl)-4-methylphenyl)isonicotinamide] | 32
Cc1ccc(NC(=O)c2ccnc(C(C)(F)F)c2)cc1-c1ccc2c(c1)N1CCOC[C@H]1[C@@](F)(CO)C2 [Example 371, 2-(1,1-difluoroethyl)-N-(3-((4aS,5R)-5-fluoro-5-(hydroxymethyl)-1,2,4,4a,5,6-hexahydro-[1,4]oxazino[4,3-a]quinolin-9-yl)-4-methylphenyl)isonicotinamide] | 200
Cc1ccc(NC(=O)c2ccnc(C(C)(F)F)c2)cc1-c1cnc2c(c1)N1CCOC[C@H]1C[C@H]2OCCO [Example 513, 2-(1,1-difluoroethyl)-N-(3-((4aR,6R)-6-(2-hydroxyethoxy)-1,2,4,4a,5,6-hexahydro-[1,4]oxazino[4,3-a][1,5]naphthyridin-9-yl)-4-methylphenyl)iso-nicotinamide] | 100
CCN1C(=O)[C@@H]2COCC[C@H]2c2cc(-c3cc(NC(=O)c4ccnc(C(F)(F)F)c4)ccc3C)cnc21 [Example 311, N-(3-((4aS, 10bR)-6-ethyl-5-oxo-1,4,4a,5,6,10b-hexahydro-2H-pyrano[3,4 - c][1,8]naphthyridin-9-yl)-4-methylphenyl)-2-(trifluoromethyl) isonicotinamide] | 100
Cc1ccc(NC(=O)c2ccnc(C(F)(F)F)c2)cc1-c1cnc2c(c1)N1CCOC[C@H]1[C@H](C(C)(C)O)C2 [Example 457] | 400
Cc1ccc(NC(=O)c2ccnc(C(C)(C)F)c2)cc1-c1cc2c(cc1F)C[C@](F)(CO)[C@H]1COCCN21 [Example 478, N-(3-((4aR,5R)-5,8-difluoro-5-(hydroxymethyl)-1,2,4,4a,5,6-hexahydro-[1,4]oxazino[4,3-a]quinolin-9-yl)-4-methylphenyl)-2-(2-fluoropropan-2-yl)isonicotinamide] | 200
Cc1ccc(NC(=O)c2ccnc(C(F)(F)F)c2)cc1-c1cc(F)c2c(c1)N1CCOC[C@@H]1[C@@](F)(CO)C2 [Example 424, N-(3-((4aR,5R)-5,7-difluoro-5-(hydroxymethyl)-1,2,4,4a,5,6-hexahydro-[1,4]oxazino[4,3-a]quinolin-9-yl)-4-methylphenyl)-2-(trifluoromethyl)isonicotinamide] | 200
Cc1ccc(NC(=O)c2ccnc(C(F)(F)F)c2F)cc1-c1cnc2c(c1)N1CCOCC1C(C)(C)C2O (centres unmarked) [Example 336, 3-fluoro-N-(3-(6-hydroxy-5,5-dimethyl-1,2,4,4a,5,6-hexahydro-[1,4]oxazino[4,3-a][1,5]naphthyridin-9-yl)-4-methylphenyl)-2-(trifluoromethyl) isonicotinamide] | 200
Cc1ccc(NC(=O)c2ccnc(C(C)(F)F)c2)cc1-c1ccc2c(c1)N1CCOC[C@@H]1[C@](C)(C#N)C2 [Example 374, N-(3-((4aS,5R)-5-cyano-5-methyl-1,2,4,4a,5,6-hexahydro-[1,4]oxazino[4,3-a]quinolin-9-yl)-4-methylphenyl)-2-(1,1-difluoroethyl)isonicotinamide] | 200
Cc1ncc(NC(=O)c2ccnc(C(C)(F)F)c2)cc1-c1ccc2c(c1)N1CCOC[C@@H]1[C@@](F)(CO)C2 [Example 85, 2-(1,1-difluoroethyl)-N-(5-((4aR,5R)-5-fluoro-5-(hydroxymethyl)-1,2,4,4a,5,6-hexahydro-[1,4]oxazino[4,3-a]quinolin-9-yl)-6-methylpyridin-3-yl)isonicotinamide] | 70
Cc1ccc(NC(=O)c2ccnc(C(F)(F)F)c2)cc1-c1cnc2c(c1)N1CCOC[C@H]1CC(=O)N2CC(C)(C)O [Example 288, (R)-N-(3-(7-(2-hydroxy-2-methylpropyl)-6-oxo-2,4,4a,5,6,7-hexahydro-1H-[1,4]oxazino[4,3-d]pyrido[2,3-b][1,4]diazepin-10-yl)-4-methylphenyl)-2-(trifluoromethyl) isonicotinamide] | 900
CNC[C@H]1Cc2ncc(-c3cc(NC(=O)c4ccnc(C(F)(F)F)c4)ccc3C)cc2N2CCOC[C@H]12 [Example 531, N-(4-methyl-3-((4aS,5R)-5-((methylamino)meth-yl)-1,2,4,4a,5,6-hexahydro-[1,4]oxazino[4,3-a][1,5]naphthyridin-9-yl)phenyl)-2-(trifluoromethyl)iso-nicotinamide] | 200
Cc1ccc(NC(=O)c2ccnc(C(F)(F)F)c2)cc1-c1cc2n(c(=O)c1)CCC1COCCN21 (racemic) [Example 94, (rac)-N-(4-methyl-3-(8-oxo-2,4,4a,5,6,8-hexahydro-1H-pyrido[2′,1′:2,3]pyrimido[6,1-c][1,4]oxazin-10-yl)phenyl)-2-(trifluoromethyl)isonicotinamide] | 19
CCN1C(=O)[C@@H]2[C@H]3COC[C@H]3[C@@H]2c2cc(-c3cc(NC(=O)c4cncc(C(F)(F)F)c4)ccc3C)cnc21 [Example 274, N-(3-((6aS, 6bS, 9aS, 9bS)-5-ethyl-6-oxo-5,6,6a,6b,7,9,9a,9b-octahydrofuro[3′,4′: 3,4]cyclobuta[1,2-c][1,8]naphthyridin-2-yl)-4-methylphenyl)-5-(trifluoromethyl) nicotinamide] | 500
Cc1ccc(NC(=O)c2ccnc(C(F)(F)F)c2)cc1-c1ccc2c(c1)N1CCOCC1C1(COC1)C2 (racemic) [Example 54, (rac)-N-(4-methyl-3-(2,4,4a,6-tetrahydro-1H-spiro[[1,4]oxazino[4,3-a]quinoline-5,3′-oxetan]-9-yl)phenyl)-2-(trifluoromethyl)isonicotinamide] | 13
Cc1ccc(NC(=O)c2ccnc(C(C)(F)F)c2)cc1-c1ccc2c(c1)N1CCOC[C@H]1C[C@@H]2O (single isomer, unassigned) [Example 19] | 19
CCN1C(=O)C2CCOCCC2c2cc(-c3cc(NC(=O)c4ccnc(C(F)(F)F)c4)ccc3C)cnc21 (stereo not drawn) [Example 246, N-(3-((5a, 11b-cis)-7-ethyl-6-oxo-1,2,4,5,5a,6,7,11b-octahydrooxepino [4,5-c][1,8]naphthyridin-10-yl)-4-methylphenyl)-2-(trifluoromethyl) isonicotinamide] | 200
Cc1ccc(NC(=O)c2ccnc(C(C)(F)F)c2)cc1-c1cc2n(c(=O)c1)CCC1COCCN21 (centres unmarked) [Example 95] | 30
